The source of these data is US9828385B2, “Spiro-oxazolones” (Hoffmann-La Roche Inc., priority 2014, dated 2017).

T1 sequence (P37288 whole entry): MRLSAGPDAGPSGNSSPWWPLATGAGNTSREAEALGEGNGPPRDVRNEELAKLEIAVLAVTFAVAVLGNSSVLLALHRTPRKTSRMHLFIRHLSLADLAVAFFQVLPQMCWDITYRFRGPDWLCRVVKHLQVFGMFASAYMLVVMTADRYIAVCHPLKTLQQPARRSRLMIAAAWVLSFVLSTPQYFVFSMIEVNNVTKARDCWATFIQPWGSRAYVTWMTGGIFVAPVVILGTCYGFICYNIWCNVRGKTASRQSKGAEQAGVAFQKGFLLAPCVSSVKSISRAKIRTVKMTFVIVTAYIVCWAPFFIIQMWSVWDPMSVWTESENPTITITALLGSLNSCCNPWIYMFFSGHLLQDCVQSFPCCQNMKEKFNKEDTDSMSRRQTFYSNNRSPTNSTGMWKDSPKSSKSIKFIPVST

This experiment concerns the target T1, human V1a receptor (Homo sapiens, UniProt P37288).
T1 construct: expressed in transfected cells; host or cells: HEK293 cells, transiently transfected; cell membranes
Nature of the experiment: human V1a receptor binding studies (3H-Vasopressin, SPA beads). The conditions noted are these: membranes of HEK293 cells transiently transfected with human V1a receptor, Ki by Cheng-Prussoff from IC50, read-out: pKi hV1a (converted). As for the experimental part:
The human V1a receptor was cloned by RT-PCR from total human liver RNA. The coding sequence was subcloned in an expression vector after sequencing to confirm the identity of the amplified sequence. […] Cell membranes were prepared from HEK293 cells transiently transfected with the expression vector and grown in 20 liter fermenters with the following protocol.
50 g of cells are re-suspended in 30 ml freshly prepared ice cold Lysis buffer (50 mM HEPES, 1 mM EDTA, 10 mM MgCl2 adjusted to pH=7.4+complete cocktail of protease inhibitor (Roche Diagnostics)). Homogenized with Polytron for 1 min and sonicated on ice for 2×2 minutes at 80% intensity (Vibracell sonicator). The preparation is centrifuged 20 min at 500 g at 4° C., the pellet is discarded and the supernatant centrifuged 1 hour at 43′000 g at 4° C. (19′000 rpm). The pellet is re-suspended in 12.5 ml Lysis buffer+12.5 ml Sucrose 20% and homogenized using a Polytron for 1-2 min. The protein concentration is determined by the Bradford method and aliquots are stored at −80° C. until use. For binding studies 60 mg Yttrium silicate SPA beads (Amersham) are mixed with an aliquot of membrane in binding buffer (50 mM Tris, 120 mM NaCl, 5 mM KCl, 2 mM CaCl2, 10 mM MgCl2) for 15 minutes with mixing. 50 μl of bead/membrane mixture is then added to each well of a 96 well plate, followed by 50 μl of 4 nM 3H-Vasopressin (American Radiolabeled Chemicals). For total binding measurement 100 μl of binding buffer are added to the respective wells, for non-specific binding 100 μl of […] cold vasopressin and for compound testing 100 μl of a serial dilution of each compound in 2% DMSO. The plate is incubated 1 h at room temperature, centrifuged 1 min at 1000 g and counted on a Packard Top-Count. Non-specific binding counts are subtracted from each well and data is normalized to the maximum specific binding set at 100%. To calculate an IC 50 the curve is fitted using a non-linear regression model (XLfit) and the Ki is calculated using the Cheng-Prussoff equation.
For `CC1(Cc2ccc(Cl)s2)OC(N2CCC3(CC2)OCc2ccccc23)=NC1=O` (single isomer, unassigned; (-)) [Example 87, (−)-5-[(5-Chlorothiophen-2-yl)methyl]-5-methyl-2-(1′H,3H-spiro[2-benzofuran-1,4′-piperidin]-1′-yl)-1,3-oxazol-4(5H)-one], the Ki was 0.2 µM. In the case of `CCOCC1(C)OC(N2CCC3(CC2)OCc2ccccc23)=NC1=O` (single isomer, unassigned; (-)) [Example 97, (−)-5-(Ethoxymethyl)-5-methyl-2-(1′H,3H-spiro[2-benzofuran-1,4′-piperidin]-1′-yl)-1,3-oxazol-4(5H)-one] it was 1.58 µM. For the compound `O=C1N=C(N2CCC3(CC2)OCc2ccccc23)OC1C(O)c1ccc(Cl)cc1` (single isomer, unassigned; diastereomer a) [Example 42, (−)-5-[(4-Chlorophenyl)(hydroxy)methyl]-2-(1′H,3H-spiro[2-benzofuran-1,4′-piperidin]-1′-yl)-1,3-oxazol-4(5H)-one diastereomer a], the Ki is 0.00316 µM. To `O=C1N=C(N2CCC3(CC2)OCc2ccccc23)OC1C(O)c1ccc(Cl)cc1` (single isomer, unassigned; diastereomer a) [Example 43, (+)-5-[(4-Chlorophenyl)(hydroxy)methyl]-2-(1′H,3H-spiro[2-benzofuran-1,4′-piperidin]-1′-yl)-1,3-oxazol-4(5H)-one diastereomer a] belongs 0.0158 µM. With `CC1(CC2CCOC2)OC(N2CCC3(CC2)OCc2ccccc23)=NC1=O` (single isomer, unassigned; diastereomer a) [Example 99, 5-Methyl-2-(1′H,3H-spiro[2-benzofuran-1,4′-piperidin]-1′-yl)-5-(tetrahydrofuran-3-ylmethyl)-1,3-oxazol-4(5H)-one diastereomer a], the Ki was 0.251 µM. In the case of `CC1(CC2CCCOC2)OC(N2CCC3(CC2)OCc2ccccc23)=NC1=O` (single isomer, unassigned; diastereomer a) [Example 102, (+)-5-Methyl-2-(1′H,3H-spiro[2-benzofuran-1,4′-piperidin]-1′-yl)-5-(tetrahydro-2H-pyran-3-ylmethyl)-1,3-oxazol-4(5H)-one diastereomer a], the Ki is 0.02 µM. `CC1(CC2CCCOC2)OC(N2CCC3(CC2)OCc2ccccc23)=NC1=O` (single isomer, unassigned; diastereomer a) [Example 103, (−)-5-Methyl-2-(1′H,3H-spiro[2-benzofuran-1,4′-piperidin]-1′-yl)-5-(tetrahydro-2H-pyran-3-ylmethyl)-1,3-oxazol-4(5H)-one diastereomer a]: the Ki was 0.01 µM. For the compound `CC(c1ccccc1)C1(C)OC(N2CCC3(CC2)OCc2ccccc23)=NC1=O` (single isomer, unassigned; diastereomer a) [Example 106, 5-Methyl-5-(1-phenylethyl)-2-(1′H,3H-spiro[2-benzofuran-1,4′-piperidin]-1′-yl)-1,3-oxazol-4(5H)-one diastereomer a], the Ki is 0.0158 µM. On to `CC(c1ccccc1)C1(C)OC(N2CCC3(CC2)OCc2ccccc23)=NC1=O` (single isomer, unassigned; diastereomer a) [Example 108, (+)-5-Methyl-5-(1-phenylethyl)-2-(1′H,3H-spiro[2-benzofuran-1,4′-piperidin]-1′-yl)-1,3-oxazol-4(5H)-one diastereomer a], for which the Ki is 0.0126 µM. In the case of `CC(c1ccccc1)C1(C)OC(N2CCC3(CC2)OCc2ccccc23)=NC1=O` (single isomer, unassigned; diastereomer a) [Example 109, (−)-5-Methyl-5-(1-phenylethyl)-2-(1′H,3H-spiro[2-benzofuran-1,4′-piperidin]-1′-yl)-1,3-oxazol-4(5H)-one diastereomer a] it was 0.0501 µM; in that of `CC(=O)O[C@H]1CC2(C[C@H]1OC(C)=O)OC(N1CCC3(CC1)OCc1ccccc13)=NC2=O` (single isomer, unassigned; diastereomer a) [Example 120, 4-Oxo-2-(1′H,3H-spiro[2-benzofuran-1,4′-piperidin]-1′-yl)-1-oxa-3-azaspiro[4.4]non-2-ene-7,8-diyl diacetate diastereomer a], 0.2 µM. In the case of `CO[C@H]1CC2(C[C@H]1OC)OC(N1CCC3(CC1)OCc1ccccc13)=NC2=O` (single isomer, unassigned; diastereomer a) [Example 122, 7,8-Dimethoxy-2-(1′H,3H-spiro[2-benzofuran-1,4′-piperidin]-1′-yl)-1-oxa-3-azaspiro[4.4]non-2-en-4-one diastereomer a] it was 0.2 µM; in that of `CCCCCC1CCC2(CC1)OC(N1CCC3(CC1)OC(=O)c1ccccc13)=NC2=O` (single isomer, unassigned; diastereomer a) [Example 126, 1′-[4-Oxo-8-pentyl-1-oxa-3-azaspiro[4.5]dec-2-en-2-yl]-3H-spiro[2-benzofuran-1,4′-piperidin]-3-one diastereomer a], 0.0316 µM; in that of `CCCCCC1CCC2(CC1)OC(N1CCC3(CC1)OCc1ccccc13)=NC2=O` (single isomer, unassigned; diastereomer a) [Example 128, 8-Pentyl-2-(1′H,3H-spiro[2-benzofuran-1,4′-piperidin]-1′-yl)-1-oxa-3-azaspiro[4.5]dec-2-en-4-one diastereomer a], 0.02 µM. On to `CCOC(=O)C1[C@H]2CC3(C[C@@H]12)OC(N1CCC2(CC1)OCc1ccccc12)=NC3=O` (single isomer, unassigned; diastereomer a) [Example 148, Ethyl 4′-oxo-2′-(1′H,3H-spiro[2-benzofuran-1,4′-piperidin]-1′-yl)-4′H-spiro[bicyclo[3.1.0]hexane-3,5′-[1,3]oxazole]-6-carboxylate diastereomer a], for which the Ki is 1 µM.

On to `O=C1N=C(N2CCC3(CC2)OCc2ccccc23)OC1C(O)c1ccc(Cl)cc1` (single isomer, unassigned; diastereomer b) [Example 44, (−)-5-[(4-Chlorophenyl)(hydroxy)methyl]-2-(1′H,3H-spiro[2-benzofuran-1,4′-piperidin]-1′-yl)-1,3-oxazol-4(5H)-one diastereomer b], for which the Ki is 0.126 µM. For `O=C1N=C(N2CCC3(CC2)OCc2ccccc23)OC1C(O)c1ccc(Cl)cc1` (single isomer, unassigned; diastereomer b) [Example 45, (+)-5-[(4-Chlorophenyl)(hydroxy)methyl]-2-(1′H,3H-spiro[2-benzofuran-1,4′-piperidin]-1′-yl)-1,3-oxazol-4(5H)-one diastereomer b], the Ki was 0.0158 µM. Take `CC1(CC2CCOC2)OC(N2CCC3(CC2)OCc2ccccc23)=NC1=O` (single isomer, unassigned; diastereomer b) [Example 100, 5-Methyl-2-(1′H,3H-spiro[2-benzofuran-1,4′-piperidin]-1′-yl)-5-(tetrahydrofuran-3-ylmethyl)-1,3-oxazol-4(5H)-one diastereomer b]: the Ki was 0.126 µM. `CC1(CC2CCCOC2)OC(N2CCC3(CC2)OCc2ccccc23)=NC1=O` (single isomer, unassigned; diastereomer b) [Example 104, (+)-5-Methyl-2-(1′H,3H-spiro[2-benzofuran-1,4′-piperidin]-1′-yl)-5-(tetrahydro-2H-pyran-3-ylmethyl)-1,3-oxazol-4(5H)-one diastereomer b]: the Ki is 0.0501 µM. For `CC1(CC2CCCOC2)OC(N2CCC3(CC2)OCc2ccccc23)=NC1=O` (single isomer, unassigned; diastereomer b) [Example 105, (−)-5-Methyl-2-(1′H,3H-spiro[2-benzofuran-1,4′-piperidin]-1′-yl)-5-(tetrahydro-2H-pyran-3-ylmethyl)-1,3-oxazol-4(5H)-one diastereomer b], the Ki is 0.501 µM. As to `CC(c1ccccc1)C1(C)OC(N2CCC3(CC2)OCc2ccccc23)=NC1=O` (single isomer, unassigned; diastereomer b) [Example 107, 5-Methyl-5-(1-phenylethyl)-2-(1′H,3H-spiro[2-benzofuran-1,4′-piperidin]-1′-yl)-1,3-oxazol-4(5H)-one diastereomer b], the Ki is 0.01 µM. For the compound `CC(c1ccccc1)C1(C)OC(N2CCC3(CC2)OCc2ccccc23)=NC1=O` (single isomer, unassigned; diastereomer b) [Example 110, (−)-5-Methyl-5-(1-phenylethyl)-2-(1′H,3H-spiro[2-benzofuran-1,4′-piperidin]-1′-yl)-1,3-oxazol-4(5H)-one diastereomer b], the Ki was 0.00631 µM.
